For 23 molecules, IC50 results are on record in US20260062443A1 (ALEXION PHARMACEUTICALS, INC., priority 2022, published 2026).

The target of this assay is T1, Human complement C1s enzyme (Homo sapiens, UniProt P09871).
T1 sequence (P09871 438-688 limits assumed): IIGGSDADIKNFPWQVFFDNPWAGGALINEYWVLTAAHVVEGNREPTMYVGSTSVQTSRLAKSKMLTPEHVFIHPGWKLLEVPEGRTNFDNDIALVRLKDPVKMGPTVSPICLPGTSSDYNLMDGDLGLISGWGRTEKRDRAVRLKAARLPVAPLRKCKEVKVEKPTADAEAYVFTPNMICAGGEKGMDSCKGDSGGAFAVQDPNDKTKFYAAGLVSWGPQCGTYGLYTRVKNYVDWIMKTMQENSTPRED
T1 sequence (P09871 16-437 partner limits assumed): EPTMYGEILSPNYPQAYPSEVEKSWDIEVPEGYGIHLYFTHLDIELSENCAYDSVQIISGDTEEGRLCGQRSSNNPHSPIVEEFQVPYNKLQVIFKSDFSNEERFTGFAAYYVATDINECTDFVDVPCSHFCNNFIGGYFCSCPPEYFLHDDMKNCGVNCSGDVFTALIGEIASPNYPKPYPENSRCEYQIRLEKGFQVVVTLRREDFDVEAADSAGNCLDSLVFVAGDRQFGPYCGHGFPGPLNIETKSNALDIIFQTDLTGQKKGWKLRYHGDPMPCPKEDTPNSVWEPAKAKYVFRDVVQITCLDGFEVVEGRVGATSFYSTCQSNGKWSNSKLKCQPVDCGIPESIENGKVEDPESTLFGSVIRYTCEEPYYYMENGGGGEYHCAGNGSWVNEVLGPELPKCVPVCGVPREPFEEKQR
In words: Human C1s enzyme assay. It is filed as biochemical. The conditions noted are these: human complement C1s enzyme 1.16 nM, substrate Z-L-Lys-SBzl 100 μM, 5 min preincubation; read-out: IC50 (Stars), C1s Inhibiting Activity. The method in brief:
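IC50 from nonlinear regression of reaction rates versus compound concentration, with rates taken from A405 recorded at 30 s intervals over 30 min after adding 100 μM Z-L-Lys-SBzl plus 100 μM DTNB. Enzyme was human C1s purified from serum, 1.16 nM, given 5 min compound preincubation at room temperature, pH 7.5 Tris/1 M NaCl.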

A value given as a limit tells only on which side of the number the result lay.

Usually IC50 stands for the concentration that gives 50% inhibition. For the molecule `O=C(NCC(=O)N1C[C@H](OC(F)F)C[C@H]1C(=O)N[C@H](CO)c1cc2cnccc2[nH]1)c1ccc(Oc2ccc(F)cc2)cc1` [Compound 98, (2S,4R)-4-(difluoromethoxy)-1-((4-(4-fluorophenoxy)benzoyl)glycyl)-N-((S)-2-hydroxy-1-(1H-pyrrolo[3,2-c]pyridin-2-yl)ethyl)pyrrolidine-2-carboxamide], the half-maximal inhibitory concentration (IC50) is 100 to 1000 nM.
With `C[C@@H](NC(=O)[C@@H]1C[C@@H](OC(F)F)CN1C(=O)CNC(=O)c1cnc2c(c1)Oc1ccccc1S2)c1cc2cnccc2[nH]1` [Compound 283, N-[2-[(2S,4R)-4-(difluoromethoxy)-2-[[(1R)-1-(1H-pyrrolo[3,2-c]pyridin-2-yl)ethyl]carbamoyl]pyrrolidin-1-yl]-2-oxo-ethyl]-[1,4]benzoxathiino[3,2-b]pyridine-3-carboxamide], the concentration for half-maximal inhibition (IC50) was less than 100 nM.
As for `Nc1nccc2ccc(CNC(=O)[C@@H]3CC4(CN3C(=O)CNC(=O)c3ccc5c(c3)Oc3ccccc3S5)OCCO4)cc12` [Compound 51, (S)-N-((1-aminoisoquinolin-7-yl)methyl)-7-((phenoxathiine-3-carbonyl)glycyl)-1,4-dioxa-7-azaspiro[4.4]nonane-8-carboxamide], the IC50 was more than 1000 nM.
In the case of `C[C@@]12C[C@@H]1N(C(=O)CNC(=O)c1ccc3c(c1)Oc1ccccc1S3)[C@H](C(=O)NCc1cc3c(s1)CCNC3)C2` [Compound 170, (1S,3S,5S)-5-methyl-2-((phenoxathiine-3-carbonyl)glycyl)-N-((4,5,6,7-tetrahydrothieno[3,2-c]pyridin-2-yl)methyl)-2-azabicyclo[3.1.0]hexane-3-carboxamide] it was less than 100 nM; in that of `O=C(NCC(=O)N1C[C@H](OC(F)F)C[C@H]1C(=O)NCc1ccc2c(c1)CNCC2)c1ccc2c(c1)Oc1ccccc1S2` [Compound 226, (2S,4R)-4-(difluoromethoxy)-1-((phenoxathiine-3-carbonyl)glycyl)-N-((1,2,3,4-tetrahydroisoquinolin-7-yl)methyl)pyrrolidine-2-carboxamide], more than 1000 nM.
As for `C[C@@]12C[C@@H]1N(C(=O)CNC(=O)CCCOc1ccccc1)[C@H](C(=O)NC1CN(C(=O)[C@H]3CNCCN3)C1)C2` [Compound 296, (1S,3S,5S)-5-methyl-2-((4-phenoxybutanoyl)glycyl)-N-(1-((R)-piperazine-2-carbonyl)azetidin-3-yl)-2-azabicyclo[3.1.0]hexane-3-carboxamide], the IC50 was more than 1000 nM.
As to `O=C(NCC(=O)N1C[C@H](OC(F)F)C[C@H]1C(=O)NCc1cc2cnccc2[nH]1)c1ccc(OC2CCCCC2)cc1` [Compound 383, (2S,4R)-N-((1H-pyrrolo[3,2-c]pyridin-2-yl)methyl)-1-((4-(cyclohexyloxy)benzoyl)glycyl)-4-(difluoromethoxy)pyrrolidine-2-carboxamide], the IC50 is less than 100 nM.
Turning to `O=C(NCC(=O)N1CC2(C[C@H]1C(=O)NCc1cc3cnccc3[nH]1)OCCO2)c1ccc2sc3ccccc3c2c1` [Compound 212, (S)-N-((1H-pyrrolo[3,2-c]pyridin-2-yl)methyl)-7-((dibenzo[b,d]thiophene-2-carbonyl)glycyl)-1,4-dioxa-7-azaspiro[4.4]nonane-8-carboxamide], the half-inhibitory concentration (IC50) was less than 100 nM.
For `CC(C)S(=O)(=O)[C@@H]1C[C@@H](C(=O)N[C@H](C)c2cc3cnccc3[nH]2)N(C(=O)CNC(=O)c2ccc3c(c2)Oc2ccccc2S3)C1` [Compound 133, (2S,4R)-N-((R)-1-(1H-pyrrolo[3,2-c]pyridin-2-yl)ethyl)-4-(isopropylsulfonyl)-1-((phenoxathiine-3-carbonyl)glycyl)pyrrolidine-2-carboxamide] the value was less than 100 nM; for `Cc1ccc(Oc2cccc(C(=O)NCC(=O)N3C[C@H](OC(F)F)C[C@H]3C(=O)NCc3cc4cnccc4[nH]3)c2)cc1` [Compound 272], less than 100 nM.
In the case of `C[C@@]12C[C@@H]1N(C(=O)CNC(=O)c1ccc3c(c1)Oc1ccccc1S3)[C@H](C(=O)NCc1cc3cnccc3[nH]1)C2` [Compound 44, (1S,3S,5S)-N-((1H-pyrrolo[3,2-c]pyridin-2-yl)methyl)-5-methyl-2-((phenoxathiine-3-carbonyl)glycyl)-2-azabicyclo[3.1.0]hexane-3-carboxamide] it was less than 100 nM.
For `C[C@@H](NC(=O)[C@@H]1C[C@@H](OC(F)F)CN1C(=O)CNC(=O)c1ccc(Oc2ccccc2)cc1)c1cc(B(O)O)cs1` [Compound 189, (5-((R)-1-((2S,4R)-4-(difluoromethoxy)-1-((4-phenoxybenzoyl)glycyl)pyrrolidine-2-carboxamido)ethyl)thiophen-3-yl)boronic acid] the value was more than 1000 nM; for `C[C@@H](NC(=O)[C@@H]1C[C@@H](OC(F)F)CN1C(=O)CNC(=O)c1ccc2c(c1)-c1ccccc1C2(F)F)c1cc2cnccc2s1` [Compound 207, (2S,4R)-1-((9,9-difluoro-9H-fluorene-3-carbonyl)glycyl)-4-(difluoromethoxy)-N-((R)-1-(thieno[3,2-c]pyridin-2-yl)ethyl)pyrrolidine-2-carboxamide], more than 1000 nM; for `Cc1cc2[nH]c(CNC(=O)[C@@H]3C[C@]4(C)C[C@@H]4N3C(=O)CNC(=O)c3ccc4c(c3)Oc3ccccc3S4)cc2cn1` [Compound 268, (1S,3S,5S)-5-methyl-N-((6-methyl-1H-pyrrolo[3,2-c]pyridin-2-yl)methyl)-2-((phenoxathiine-3-carbonyl)glycyl)-2-azabicyclo[3.1.0]hexane-3-carboxamide], more than 1000 nM.
For `O=C(NCC(=O)N1C[C@H](OC(F)F)C[C@H]1C(=O)NCc1cc2cnccc2[nH]1)c1cccc(Oc2ccccc2)c1` [Compound 127, (2S,4R)-N-((1H-pyrrolo[3,2-c]pyridin-2-yl)methyl)-4-(difluoromethoxy)-1-((3-phenoxybenzoyl)glycyl)pyrrolidine-2-carboxamide], the IC50 was less than 100 nM.
In the case of `C[C@@H](NC(=O)[C@@H]1C[C@@H](c2ncco2)CN1C(=O)CNC(=O)c1ccc2c(c1)Oc1ccccc1S2)c1cc2cnccc2[nH]1` [Compound 177, (2S,4R)-N-((R)-1-(1H-pyrrolo[3,2-c]pyridin-2-yl)ethyl)-4-(oxazol-2-yl)-1-((phenoxathiine-3-carbonyl)glycyl)pyrrolidine-2-carboxamide] it was less than 100 nM.
As to `C[C@@H](NC(=O)[C@@H]1CC(COCCCCN)CN1C(=O)CNC(=O)c1ccc2c(c1)Oc1ccccc1S2)c1cc2cnccc2[nH]1` (stereo partly drawn) [Compound 288, (2S)-N-((R)-1-(1H-pyrrolo[3,2-c]pyridin-2-yl)ethyl)-4-((4-aminobutoxy)methyl)-1-((phenoxathiine-3-carbonyl)glycyl)pyrrolidine-2-carboxamide], the IC50 is less than 100 nM.
Regarding `O=C(NCC(=O)N1C[C@H](OC(F)F)C[C@H]1C(=O)NCc1cc2cnccc2[nH]1)c1cccc(Oc2cccs2)c1` [Compound 275, (2S,4R)-N-((1II-pyrrolo[3,2-c]pyridin-2-yl)methyl)-4-(difluoromethoxy)-1-((3-(thiophen-2-yloxy)benzoyl)glycyl)pyrrolidine-2-carboxamide], the IC50 was less than 100 nM.
Regarding `C[C@@H](NC(=O)[C@@H]1CC2(CC2)CN1C(=O)CNC(=O)c1ccc2c(c1)Oc1ccccc1S2)c1cc2cnccc2[nH]1` [Compound 190, (S)-N-((R)-1-(1H-pyrrolo[3,2-c]pyridin-2-yl)ethyl)-5-((phenoxathiine-3-carbonyl)glycyl)-5-azaspiro[2.4]heptane-6-carboxamide], the IC50 is less than 100 nM.
`O=C(NCc1cc2cnccc2[nH]1)[C@@H]1CC2(CN1C(=O)CN1Cc3cc(-c4ccc(F)cc4F)ccc3C1=O)OCCO2` [Compound 120, (S)-N-((1H-pyrrolo[3,2-c]pyridin-2-yl)methyl)-7-(2-(5-(2,4-difluorophenyl)-1-oxoisoindolin-2-yl)acetyl)-1,4-dioxa-7-azaspiro[4.4]nonane-8-carboxamide]: the IC50 is less than 100 nM.
Turning to `C[C@@]12C[C@@H]1N(C(=O)CNC(=O)CCCOc1ccccc1)[C@H](C(=O)N[C@@H]1CCN(Cc3c[nH]cn3)C1=O)C2` [Compound 61, (1S,3S,5S)-N-((R)-1-((1H-imidazol-4-yl)methyl)-2-oxopyrrolidin-3-yl)-5-methyl-2-((4-phenoxybutanoyl)glycyl)-2-azabicyclo[3.1.0]hexane-3-carboxamide], the IC50 is more than 1000 nM.
In the case of `COC[C@@]1(F)C[C@@H](C(=O)N[C@@H](C)c2cc3cnccc3[nH]2)N(C(=O)CNC(=O)c2ccc(Oc3ccccc3)cc2)C1` [Compound 21, (2S,4R)-N-((S)-1-(1H-pyrrolo[3,2-c]pyridin-2-yl)ethyl)-4-fluoro-4-(methoxymethyl)-1-((4-phenoxybenzoyl)glycyl)pyrrolidine-2-carboxamide] it was more than 1000 nM; in that of `COC[C@@]12C[C@@H]1N(C(=O)CNC(=O)c1ccc3c(c1)Oc1ccccc1S3)[C@H](C(=O)N[C@H](C)c1cc3cnccc3[nH]1)C2` [Compound 191, (1S,3S,5R)-N-((R)-1-(1H-pyrrolo[3,2-c]pyridin-2-yl)ethyl)-5-(methoxymethyl)-2-((phenoxathiine-3-carbonyl)glycyl)-2-azabicyclo[3.1.0]hexane-3-carboxamide], less than 100 nM.
